Positions count from the first letter of the chain named.
Experiments:
Type in all cases: cell-based
[1] = biological target: T1, AT1 wild-type receptor (Rattus norvegicus, UniProt P25095); assay: IP production assay in COS7 cells expressing AT1 wild-type receptor; conditions: for Effect on IP production: AT1 wild-type receptor, COS7 cells, 1 µM ligands or 0.1 µM Ang II, 30 min, n = 5, vs. (-); for Mode of action with regard to IP production: authors' classification from IP production at AT1 wild-type receptor
T1 construct: expressed in transfected cells; host or cells: COS7
T1 sequence (P25095 1-359): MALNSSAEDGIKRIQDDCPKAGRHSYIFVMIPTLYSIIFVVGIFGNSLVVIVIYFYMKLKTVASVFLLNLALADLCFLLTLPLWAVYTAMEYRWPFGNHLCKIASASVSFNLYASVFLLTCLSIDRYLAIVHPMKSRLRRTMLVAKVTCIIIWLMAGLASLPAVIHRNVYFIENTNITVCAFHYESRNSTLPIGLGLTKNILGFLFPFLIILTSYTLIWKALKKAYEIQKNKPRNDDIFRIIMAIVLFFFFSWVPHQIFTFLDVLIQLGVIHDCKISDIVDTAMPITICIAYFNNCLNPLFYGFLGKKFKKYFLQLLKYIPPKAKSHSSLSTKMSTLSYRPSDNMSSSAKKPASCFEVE
Description: (§1) The synthetic rat AT1 receptor gene, which was cloned in the shuttle expression vector pMT-2, was used for expression and mutagenesis, as described previously. […] In the experiments, cells were grown without a cell-growth supplement. To express the AT1 receptor protein, 10 µg of purified plasmid DNA per 10^7 cells was used in the transfection. Wild-type and mutated AT1 receptors were transiently transfected into cells using Lipofectamine 2000 liposomal reagent (Roche Applied Science, Penzberg, Germany). Cells were plated and grown and were 70–90% confluent at the time of transfection. We incubated plasmid DNA (10 µg)–lipid (10 µL) complexes for 5 min at room temperature and added and incubated the complexes with cells for 24 h. We then analyzed the parameters in transfected cells. […] Transfected cells that had been cultured for 48–72 h were harvested. Cell membranes were prepared using the nitrogen Parr bomb disruption or freeze–thaw methods.
(§2) Ligand (such as agonist or antagonist)-induced IP production through the AT1 receptor in transfected COS7 cells transiently expressing the AT1 receptor was measured to evaluate cell signaling as a second messenger for controlling blood pressure, since the increases in the intracellular Ca^2+ concentration were the result of IP accumulation, which indicated vasoconstriction. As a surrogate model with higher levels of AT1 receptor expression, COS7 cells are suitable for IP measurement because it is easy to detect differences in IP production. Cells were labeled for 24 h with [^3H]-myoinositol at 37 °C in DMEM containing 10% FBS. Next, the cells were washed with buffer 3 times and incubated with a medium containing 10 mM LiCl for 20 min; 0.1 µM Ang II or 1 µM ligands were added and incubation was continued for another 30 min at 37 °C. After incubation, the medium was removed, and total soluble IP was extracted from the cells using the perchloric acid extraction method, as described previously. Cells were plated at a field density of 5 × 10^3 cells/cm^2 in 60 mm dishes and cultured in a fresh growth medium at 37 °C in a DMEM 5% CO2 incubator. […] The culture medium was changed 48 h after transfection and 1.5 mL of 1 μCi/mL of [^3H]-myoinositol was added to each 60-mm dish at 37 °C in DMEM containing 10% FBS. After labeling, the cells were washed with buffer 3 times and incubated with a medium containing 10 mM LiCl for 20 min. The indicated concentration of ligands was added and incubation was continued for an additional 30 min at 37 °C. After incubation, the medium was removed, and total soluble IP was extracted from the cells using the perchloric acid extraction method. Total IP production was expressed as the sum of radioactivity, as described previously.

[2] = biological target: T2, AT1 L112A receptor (Rattus norvegicus, UniProt P25095, L112A); assay: IP production assay in COS7 cells expressing AT1-L112A receptor; conditions: 1 µM ligands or 0.1 µM Ang II, 30 min, n = 5, vs. (-)
T2 construct: expressed in transfected cells; host or cells: COS7
T2 sequence (P25095 1-359 L112A): T1 sequence (P25095 1-359) with L112A
Description: as §1, §2

[3] = biological target: T1, AT1 wild-type receptor; assay: Immunoblotting of ERK 1/2 activation in COS7 cells overexpressing AT1 wild-type receptor; conditions: for ERK1/2 activation: AT1 wild-type receptor, COS7 cells, 1 µM ligands or 0.1 µM Ang II, 10 min, n = 5, vs. (-); for Mode of action in terms of ERK1/2 activation: authors' classification from ERK1/2 activation
Description: as §1
In in vitro studies, ERK 1/2 activation by 1 µM ligands or 0.1 µM Ang II incubated for 10 min was measured using COS7 cells that overexpressed AT1 wild-type and mutant receptors. ERK activity was measured in cells maintained for 18 h in DMEM containing 0.1% serum. At the end of the stimulation, the culture medium was removed by aspiration, the cells were washed with ice-cold phosphate-buffered saline, and the dishes were frozen in liquid nitrogen. The cells were scraped using a scraper after melting, and the scraped cells were transferred to a tube. We homogenized the cells in lysis buffer plus protease inhibitors and determined the protein concentration using the bicinchoninic acid method. […] We fractionated total proteins using sodium dodecyl sulfate polyacrylamide gel electrophoresis; we then transferred the proteins to a Hybond nitrocellulose membrane and blocked the blotted membranes with 10% bovine serum albumin in tris-buffered saline buffer (50 mM Tris–HCl pH 7.6, 150 mM NaCl) for 1 h at room temperature. […] An enhanced chemiluminescent substrate system (Amersham, Buckinghamshire, UK) was used. The signal was independently quantified by digital image analysis (ImageJ, National Institutes of Health, Bethesda, MD, USA).

SMILES | Effect on IP production [1] | Mode of action with regard to IP production [1] | Effect on IP production [2] | ERK1/2 activation [3] | Mode of action in terms of ERK1/2 activation [3]
CCCc1nc(C(C)(C)O)c(C(=O)O)n1Cc1ccc(-c2ccccc2-c2nnn[nH]2)cc1 [Olmesartan, olmesartan] | significant reduction in basal IP production levels | inverse agonism | significant reduction in basal IP production levels | did not change ERK1/2 activation | 
CCCc1nc(C(C)(C)O)c(C(N)=O)n1Cc1ccc(-c2ccccc2-c2nnn[nH]2)cc1 [R239470] | did not change IP production | neutral antagonist | none of the compounds (R239470, R781253, and R794847) affected IP production | but not R239470, activated ERK1/2 | 
CCCc1nc(C(C)(C)O)c(C(=O)O)n1Cc1ccc(-c2cc(Cc3ccc(O)cc3)ccc2-c2nnn[nH]2)cc1 [R781253] | significantly decreased | inverse agonist | none of the compounds (R239470, R781253, and R794847) affected IP production | activated ERK1/2 | agonists in terms of ERK1/2 activation
CCCc1nc(C(C)(C)O)c(C(N)=O)n1Cc1ccc(-c2cc(Cc3ccc(O)cc3)ccc2-c2nnn[nH]2)cc1 [R794847] | increased IP production | agonist | none of the compounds (R239470, R781253, and R794847) affected IP production | activated ERK1/2 | agonists in terms of ERK1/2 activation
